Read-outs that look alike come from different tables or passages of the source.

Test [1] deals with T1, ErbB2 or EGFR.
T1 construct: enzymes purified from a baculovirus expression system; Reagent production was conducted essentially as described in Brignola, P. S., et al, (2002) J. Biol. Chem. 277(2): 1576-1585
In words: ErbB family substrate phosphorylation enzyme assay (HTRF), Method A or Method B. Format: biochemical. As for the experimental part: Compounds of the present invention were tested for EGFR, ErbB-2, and ErbB-4 protein tyrosine kinase inhibitory activity in substrate phosphorylation assays using enzymes purified from a baculovirus expression system. Reagent production was conducted essentially as described in Brignola, P. S., et al, (2002) J. Biol. Chem. 277(2): 1576-1585.
The method measures the ability of the isolated enzyme to catalyse the transfer of the gamma-phosphate from ATP onto the tyrosine residue of a biotinylated synthetic peptide referenced “Peptide C” in Brignola, P. S., et al, (2002) J. Biol. Chem. 277(2):1576-1585. The extent of tyrosine phosphorylation was measured using an anti-phosphotyrosine antibody, and quantified by homogenous time-resolved fluorescence (HTRF).
Reactions were performed in black 384-well polystyrene flat-bottom plates in a final volume of 20 ul. Assays were performed by adding 10 μl of each of the following solutions, substrate Mix and enzyme mix: The Substrate mix contained 100 mM 3-[N-morpholino]propanesulfonic acid (MOPS) (pH 7.5), 2 mM MnCl2, 20 μM ATP, 0.01% Tween-20, 0.1 mg/mL (BSA), 0.8 uM peptide substrate, and 1 mM dithiothreitol. The enzyme mix contained 100 mM MOPS (pH7.5); 0.01% Tween-20; 0.1 mg/mL BSA, and either 0.8 nM EGFR, 10 nM ErbB2, or 1 nM ErbB4
During the course of these studies, two separate methods have been used to measure the potency of compounds. In Method A, the substrate mix was added to the compound plates first, then the reaction was started by adding the enzyme mix. In Method B, the enzyme mix was added to the compound plates and the plates were incubated at 20° C. for 1 hour. The reactions were then started by adding the substrate mix.
After initiating the reaction with either method describe above, the reactions were allowed to proceed for 90 minutes at 20° C. The reactions were then terminated by the addition of 20 μl 100 mM EDTA to each well. 40 μl/well of HTRF detection mix were added to the assay plates. The final concentrations of the detection reagents were: 100 mM HEPES (pH7.5), 0.1 mg/mL BSA, 15 nM streptavidin-labeled allophycocyanin (PerkinElmer), and 1 nM europium-labeled anti-phosphotyrosine antibody (PerkinElmer). Assay plates were left unsealed and were counted in a Wallac Multilabel Counter 1420 (PerkinElmer).
Compounds under analysis were dissolved in Me2SO to 1.0 mM and serially diluted 1 to 3 with Me2SO through twelve dilutions. 1 μl of each concentration was transferred to the corresponding well of an assay plate. This creates a final compound concentration range from 0.00027 to 47.6 μM.
The data for dose responses were plotted as % Inhibition calculated with the data reduction formula 100*(1−(U1−C2)/(C1−C2)) versus concentration of compound where U is the unknown value, C1 is the average control value obtained for 4.76% DMSO, and C2 is the average control value obtained for 0.035 M EDTA. Data were fitted with a curve described by: y=((Vmax*x)/(K+x))+Y^2 where Vmax is the upper asymptote, Y2 is the Y intercept, and K is the IC50. The results for each compound were recorded as pIC50s, calculated as follows: pIC50=−Log 10(K)

Test [2] relates to BT474 and HN5 tumor cell lines. The test can be described thus: Methylene blue growth inhibition assay (cellular Method A). Format: cell-based, Human. The following applies: 3 days, read-out: Activity (Method): growth inhibition IC50 class. Here is the method: Human breast (BT474) and head and neck (HN5) were cultured in low glucose DMEM (Life Technologies 12320-032) containing 10% fetal bovine serum (FBS). Human colon tumor cells (Colo205) were cultured in DMEM (Invitrogen, 10564) containing 10% FBS. The SV40 transformed human mammary epithelial cell line HB4a was transfected with either human H-ras cDNA (HB4a r4.2) or the human c-ErbB2 cDNA (HB4a c5.2). The HB4a clones were cultured in RPMI containing 10% FBS, insulin (5 g/mL), hydrocortisone (5 g/mL), supplemented with the selection agent hygromycin B (50 g/mL). All lines were grown in a humidified incubator at 37° C. in 95% air, 5% CO2. Cells were harvested using trypsin/EDTA, counted using a haemocytometer, and plated in 100 microliters of the appropriate media, at the following densities, in a 96-well tissue culture plate (Falcon 3075): BT474 10,000 cells/well, HN5 3,000 cells/well. The next day, compounds were diluted in DMEM containing […] gentamicin, at twice the final required concentration, from 10 mM stock solutions in DMSO. 100 microliters/well of these dilutions were added to the 100 microliters of media currently on the cell plates. Medium containing 0.6% DMSO was added to control wells. Compounds diluted in DMEM were added to all cell lines. The final concentration of DMSO in all wells was 0.3%. Cells were returned to the incubator (37° C., 10% CO2) for 3 days. Medium was then removed by aspiration. Cell biomass was estimated by staining cells with 90 microliters per well methylene blue (Sigma M9140, 0.5% in 1:1 ethanol:water), and incubation at rt for at least 30 minutes. Stain was removed, and the plates rinsed by immersion in deionized water and air-dried. To release stain from the cells 100 microliters of solubilization solution was added (1% N-lauroyl sarcosine, Sodium salt, Sigma L5125, in PBS), and plates were shaken gently for about 30 minutes. Optical density at 620 nm was measured on a microplate reader. Percent inhibition of cell growth was calculated relative to vehicle treated control wells. Concentration of compound that inhibits 50% of control cell growth (IC50) was interpolated using nonlinear regression (Levenberg-Marquardt) and the equation, y=Vmax*(1−(x/(K+x)))+Y2, where “K” was equal to the IC50. Method B: Celltiter Glo® Growth Inhibition Assays

Where [3] appears, read: Method A: substrate mix added first, reaction started with enzyme mix.
Setting [4] is: Method B: enzyme mix pre-incubated with compound 1 hour at 20° C., started with substrate mix.

For `O=C(Nc1cccc(-c2nn3ccccc3c2-c2ccnc(Nc3ccccc3)n2)c1)c1ccco1` [Example 137, Furan-2-carboxylic acid {3-[3-(2-phenylamino-pyrimidin-4-yl)-pyrazolo[1,5-a]pyridin-2-yl]-phenyl}-amide], the “Activity (Method): pIC50 class against ErbB2 or EGFR” value (shortened to “Activity (Method): pIC50 class”) in test [1] (setting [3]) is given as “+++ (A) (at least one pIC50 measurement of greater than 7 against either ErbB2 or EGFR)”. Moreover, the IC50 in test [2] (Homo sapiens, BT-474, 72 h) fell in the range of 100 to 1000 nM.

As for `O=C(Nc1cccc(-c2nn3ccccc3c2-c2ccnc(Nc3cccc(F)c3)n2)c1)c1c(F)ccc(F)c1Cl` [Example 21, 2-Chloro-3,6-difluoro-N-(3-{3-[2-(3-fluoro-phenylamino)-pyrimidin-4-yl]-pyrazolo[1,5-a]pyridin-2-yl}-phenyl)-benzamide], the “Activity (Method): pIC50 class” value in test [1] (setting [4]) is listed as “+++ (B) (at least one pIC50 measurement of greater than 7 against either ErbB2 or EGFR)”. Also, the IC50 in test [2] (Homo sapiens, BT-474, 72 h) was in the range of 100 to 1000 nM.

Turning to `O=C(Nc1cccc(-c2nn3ccccc3c2-c2ccnc(Nc3ccc4c(c3)OCCO4)n2)c1)c1ccccc1Cl` [Example 6, 2-Chloro-N-(3-{3-[2-(2,3-dihydro-benzo[1,4]dioxin-6-ylamino)-pyrimidin-4-yl]-pyrazolo[1,5-a]pyridin-2-yl}-phenyl)-benzamide], the “Activity (Method): pIC50 class” value in test [1] (setting [3]) is listed as “+++ (A) (at least one pIC50 measurement of greater than 7 against either ErbB2 or EGFR)”. In addition, in test [2] (Homo sapiens, BT-474, 72 h), the IC50 is less than 100 nM.

Turning to `O=C(Nc1cccc(-c2nn3ccccc3c2-c2ccnc(Nc3cccc(F)c3)n2)c1)c1ccc(F)cc1` [Example 15, 4-Fluoro-N-(3-{3-[2-(3-fluoro-phenylamino)-pyrimidin-4-yl]-pyrazolo[1,5-a]pyridin-2-yl}-phenyl)-benzamide], the “Activity (Method): pIC50 class” value in test [1] (setting [4]) was “+++ (B) (at least one pIC50 measurement of greater than 7 against either ErbB2 or EGFR)”. The IC50 in test [2] (Homo sapiens, BT-474, 72 h) was 100 to 1000 nM.

With `O=C(Nc1cccc(-c2nn3ccccc3c2-c2ccnc(Nc3cccc(N4CCCC4=O)c3)n2)c1)c1cc(F)ccc1F` [Example 49, 2,5-Difluoro-N-{3-[3-(2-{[3-(2-oxo-1-pyrrolidinyl)phenyl]amino}-4-pyrimidinyl)pyrazolo[1,5-a]pyridin-2-yl]phenyl}benzamide], the “Activity (Method): pIC50 class” value in test [1] (setting [3]) is reported as “+++ (A) (at least one pIC50 measurement of greater than 7 against either ErbB2 or EGFR)”. The IC50 in test [2] (Homo sapiens, BT-474, 72 h) fell in the range of 100 to 1000 nM.

`Cc1cccc2c(-c3ccnc(Nc4cccc(C(F)(F)F)c4)n3)c(-c3cccc(NC(=O)c4c(F)cccc4F)c3)nn12` [Example 155, 2,6-Difluoro-N-{3-[7-methyl-3-(2-{[3-(trifluoro-methyl)phenyl]amino}pyrimidin-4-yl)pyrazolo[1,5-a]pyridin-2-yl]phenyl}benzamide]: the “Activity (Method): pIC50 class” value in test [1] (setting [3]) is reported as “++ (A) (at least one pIC50 measurement greater than 6 against either ErbB2 or EGFR but no measurement greater than pIC50 of 7)”. Moreover, the IC50 in test [2] (Homo sapiens, BT-474, 72 h) fell in the range of 100 to 1000 nM.

Regarding `Cc1ccsc1C(=O)Nc1cccc(-c2nn3ccccc3c2-c2ccnc(Nc3ccccc3)n2)c1` [Example 145, 3-Methyl-N-(3-{3-[2-(phenylamino)-4-pyrimidinyl]pyrazolo[1,5-a]pyridin-2-yl}phenyl)-2-thiophenecarboxamide], in test [1] (setting [3]), the “Activity (Method): pIC50 class” value is listed as “+++ (A) (at least one pIC50 measurement of greater than 7 against either ErbB2 or EGFR)”. In addition, in test [2] (Homo sapiens, BT-474, 72 h), the IC50 was less than 100 nM.

Turning to `O=C(Nc1cccc(-c2nn3ccccc3c2-c2ccnc(Nc3cccc(F)c3)n2)c1)c1ccccn1` [Example 76, N-[3-(3-{2-[(3-fluorophenyl)amino]-4-pyrimidinyl}pyrazolo[1,5-a]pyridin-2-yl)phenyl]-2-pyridinecarboxamide], the “Activity (Method): pIC50 class” value in test [1] (method not given) was “+++ (at least one pIC50 measurement of greater than 7 against either ErbB2 or EGFR)”.

Regarding `O=C(Cc1ccccc1)c1ccc(Nc2nccc(-c3c(-c4cccc(NC(=O)c5c(F)cccc5F)c4)nn4ccccc34)n2)cc1` [Example 102, 2,6-Difluoro-N-{3-[3-(2-{[4-(phenylacetyl)phenyl]-amino}-4-pyrimidinyl)pyrazolo[1,5-a]pyridin-2-yl]-phenyl}benzamide], the IC50 in test [2] (Homo sapiens, BT-474, 72 h) is 100 to 1000 nM.

For `Cc1nc2ccc(Nc3nccc(-c4c(-c5cccc(NC(=O)c6c(F)cccc6F)c5)nn5ccccc45)n3)cc2nc1C` [Example 97, N-[3-(3-{2-[(2,3-Dimethyl-6-quinoxalinyl)amino]-4-pyrimidinyl}pyrazolo[1,5-a]pyridin-2-yl)phenyl]-2,6-difluorobenzamide], the IC50 in test [2] (Homo sapiens, BT-474, 72 h) fell in the range of 100 to 1000 nM.

Regarding `CC(c1cccc(Nc2nccc(-c3c(-c4cccc(NC(=O)c5c(F)cccc5F)c4)nn4ccccc34)n2)c1)S(C)(=O)=O` (single isomer, unassigned) [Example 123, 2,6-Difluoro-N-(3-{3-[2-({3-[1-(methylsulfonyl)ethyl]-phenyl}amino)-4-pyrimidinyl]pyrazolo[1,5-a]pyridin-2-yl}phenyl)benzamide], the IC50 in test [2] (Homo sapiens, BT-474, 72 h) is less than 100 nM.

As to `Cc1ccc2c(-c3ccnc(Nc4cccc(F)c4)n3)c(-c3cccc(NC(=O)c4cc(F)ccc4F)c3)nn2c1` [Example 40, 2,5-Difluoro-N-[3-(3-{2-[(3-fluorophenyl)amino]-4-pyrimidinyl}-6-methylpyrazolo[1,5-a]pyridin-2-yl)phenyl]benzamide], in test [2] (Homo sapiens, BT-474, 72 h), the IC50 lay in the range of 100 to 1000 nM.

As for `CC(c1cccc(Nc2nccc(-c3c(-c4cccc(NC(=O)c5c(F)cccc5F)c4)nn4ccccc34)n2)c1)S(C)(=O)=O` (single isomer, unassigned) [Example 124, 2,6-Difluoro-N-(3-{3-[2-({3-[1-(methylsulfonyl)ethyl]-phenyl}amino)-4-pyrimidinyl]pyrazolo[1,5-a]pyridin-2-yl}phenyl)benzamide], the IC50 in test [2] is less than 100 nM.

Take `O=C(Nc1cccc(-c2nn3ccccc3c2-c2ccnc(Nc3cccc(F)c3)n2)c1)c1ccccn1` [Example 22, Pyridine-2-carboxylic acid (3-{3-[2-(3-fluoro-phenylamino)-pyrimidin-4-yl]-pyrazolo[1,5-a]pyridin-2-yl}-phenyl)-amide]: in test [2] (Homo sapiens, BT-474, 72 h), the IC50 lay in the range of 100 to 1000 nM.

(Values after patent publication US7812022B2 (GlaxoSmithKline LLC, priority 2004, dated 2010).)
